We go through two compounds from patent US7157482B2, “Antibacterial 1,3-oxazolidin-2-one derivatives” (AstraZeneca AB, priority 2003, dated 2007).

SMILES strings stand for the structures. Values after ≈ are worked out from the molar mass of the structure shown.

Test [1] has as its target T1, MAO-A (Homo sapiens, UniProt P21397).
T1 construct: made in house; host or cells: yeast
T1 sequence (P21397 1-527): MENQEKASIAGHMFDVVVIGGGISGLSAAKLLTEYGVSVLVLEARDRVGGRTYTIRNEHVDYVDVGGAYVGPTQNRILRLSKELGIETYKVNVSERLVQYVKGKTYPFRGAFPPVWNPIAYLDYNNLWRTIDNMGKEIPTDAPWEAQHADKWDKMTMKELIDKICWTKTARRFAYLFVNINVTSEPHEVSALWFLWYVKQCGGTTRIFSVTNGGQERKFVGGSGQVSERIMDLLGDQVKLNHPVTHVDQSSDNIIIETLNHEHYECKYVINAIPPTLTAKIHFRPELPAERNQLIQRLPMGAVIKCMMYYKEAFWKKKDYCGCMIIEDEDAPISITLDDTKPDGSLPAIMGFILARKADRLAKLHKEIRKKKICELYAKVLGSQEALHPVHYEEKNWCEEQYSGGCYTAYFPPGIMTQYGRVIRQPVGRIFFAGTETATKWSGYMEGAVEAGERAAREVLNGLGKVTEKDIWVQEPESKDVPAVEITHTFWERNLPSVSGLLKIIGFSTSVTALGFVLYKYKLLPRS
The test can be described thus: MAO-A in-vitro assay, human liver enzyme expressed in yeast. Type of test: biochemical. Here is the method:
The activity of the compounds of the invention against MAO-A was tested using a standard in-vitro assay based on human liver enzyme expressed in yeast as described in Biochem. Biophys. Res. Commun. 1991, 181, 1084–1088.

Test [2] deals with Staphylococcus aureus MSQS (methicillin sensitive and quinolone sensitive). The test can be described thus: MIC, agar-dilution, Staphylococcus aureus MSQS. Type of test: cell-based. Particulars: S. aureus MSQS, inoculum 10^4 CFU/spot, 37° C., 24 hours. Here is the method:
(§1) The following results were obtained on a standard in-vitro test system. The activity is described in terms of the minimum inhibitory concentration (MIC) determined by the agar-dilution technique with an inoculum size of 10^4 CFU/spot. Typically, compounds are active in the range 0.01 to 256 μg/ml.
(§2) Staphylococci were tested on agar, using an inoculum of 10^4 CFU/spot and an incubation temperature of 37° C. for 24 hours—standard test conditions for the expression of methicillin resistance.

Test [3] concerns Staphylococcus aureus MRQR (methicillin resistant and quinolone resistant). The test can be described thus: MIC, agar-dilution, Staphylococcus aureus MRQR. In kind it is cell-based. Particulars: S. aureus MRQR, inoculum 10^4 CFU/spot, 37° C., 24 hours. On the procedure:
as §1, §2

Test [4] deals with Streptococcus pneumoniae. The test can be described thus: MIC, agar-dilution, Streptococcus pneumoniae. In kind it is cell-based. Particulars: agar with 5% defibrinated horse blood, 10^4 CFU/spot, 37° C., 5% carbon dioxide, 48 hours. On the procedure:
as §1
(§3) Streptococci and enterococci were tested on agar supplemented with 5% defibrinated horse blood, an inoculum of 10^4 CFU/spot and an incubation temperature of 37° C. in an atmosphere of 5% carbon dioxide for 48 hours—blood is required for the growth of some of the test organisms. Fastidious Gram negative organisms were tested in Mueller-Hinton broth, supplemented with hemin and NAD, grown aerobically for 24 hours at 37° C., and with an innoculum of 5×10^4 CFU/well.

Test [5] concerns Moraxella catarrhalis. The test can be described thus: MIC, Moraxella catarrhalis. The settings on record: fastidious Gram negative: Mueller-Hinton broth with hemin and NAD, 24 hours, 37° C., 5×10^4 CFU/well. In kind it is cell-based. On the procedure:
as §1, §3

Test [6] relates to Enterococcus faecium. Kind of test: MIC, agar-dilution, Enterococcus faecium. In kind it is cell-based. The settings on record: agar with 5% defibrinated horse blood, 10^4 CFU/spot, 37° C., 5% carbon dioxide, 48 hours. On the procedure:
as §1, §3

`Cc1cc(-c2ccc(N3C[C@H](Cn4ccnn4)OC3=O)cc2F)on1` [unsubstituted triazole equivalent, reference compound] gave a Ki in test [1] of 6.99 µM.
Consider `Cc1cn(C[C@H]2CN(c3ccc(-c4cc(C)no4)c(F)c3)C(=O)O2)nn1` [Example 1, (5R)-3-[3-Fluoro-4-(3-methylisoxazol-5-yl)phenyl]-5-[(4-methyl-1H-1,2,3-triazol-1-yl)methyl]-1,3-oxazolidin-2-one], for which the MIC came to 4 µg/mL (≈ 11.2 µM) in test [2]; 1 µg/mL (≈ 2.8 µM) in test [3]; 0.5 µg/mL (≈ 1.4 µM) in test [4]; 1 µg/mL (≈ 2.8 µM) in test [5]; 1 µg/mL (≈ 2.8 µM) in test [6]. The compound further gave a Ki in test [1] of 58.8 µM.

One may read the Ki as a measure of affinity in units of concentration, obtained from inhibition or displacement. As usually defined, the MIC is the lowest concentration that inhibits growth of the organism.
